From patent US20080114005A1, “Fibrate Compounds Having Ppar Agonist Activity” (Dr. Reddy's Laboratories Limited, priority 2004, published 2008)
Counter-ions that a name gives are not always drawn.

Experiments:
[1] = system: Swiss albino mice; experiment: plasma triglyceride lowering activity in Swiss albino mice; format: in vivo; settings: 3.0 mg/kg orally for 6 days
Protocol: The properties of the derivatives of the invention were also evaluated in vivo. The following procedure was used to determine plasma triglyceride and total cholesterol lowering activity in Swiss albino mice.
Male Swiss albino mice (SAM) were obtained from National Institute Nutrition (NIN) and housed in Dr. Reddy's Laboratories Ltd (DRL) animal house. All these animals are maintained under 12 hour light and dark cycle at 25±1° C. Animals were given standard laboratory chow (NIN, Hyderabad, India) and water, ad libitum. SAM of 20-25 grams body weight range were used. See Oliver, P., Plancke, M. O., Marzin, D., Clavey, V., Sauzieres, J and Fruchart, J. C. Effects of fenofibrate, gemfibrozil and nicotinic acid on plasma lipoprotein levels in normal and hyperlipidemic mice, Atherosclerosis. 1988. 70: 107-114, incorporated herein by reference in its entirety. The test compounds can be administered orally to Swiss albino mice at the dose mentioned in table for 6 days. Control mice were treated with vehicle 0.25% Carboxymethylcellulose (CMC; dose 10 ml/kg). The blood samples from the retro-orbital sinus through heparinised capillary in EDTA containing tubes were collected in fed state 1 hour after drug administration on 0 and 6 days of treatment. After centrifugation plasma was separated for triglyceride measurement using commercial kits. See Wieland, O. Methods of Enzymatic analysis. Bergermeyer, H. O., Ed., 1963. 211-214; Trinder, P. Ann. Clin. Biochem. 1969. 6: 24-27, incorporated herein by reference in its entirety. Percent reduction was calculated as per the formula given in Petit, D., Bonnefis, M. T., Rey, C. and Infante, R. Effects of ciprofibrate on liver lipids and lipoprotein synthesis in normo- and hyperlipidemic rats. Atherosclerosis. 1988. 74 : 215-225.

[2] = biological target: T1, human PPARδ (Homo sapiens, UniProt Q03181); experiment: in vitro PPARδ transactivation, GAL4-LBD luciferase reporter in HEK-293 cells; format: cell-based; settings: luciferase fold activation relative to untreated cells
T1 construct: expressed in transfected cells; host or cells: HEK-293
T1 sequence (Q03181 211-439 limits assumed): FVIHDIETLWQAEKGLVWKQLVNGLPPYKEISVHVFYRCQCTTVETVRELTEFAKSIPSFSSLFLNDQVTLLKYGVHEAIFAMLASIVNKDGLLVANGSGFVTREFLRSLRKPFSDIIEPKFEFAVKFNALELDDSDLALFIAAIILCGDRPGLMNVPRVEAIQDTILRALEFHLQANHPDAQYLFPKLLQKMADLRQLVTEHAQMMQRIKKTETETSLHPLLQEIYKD
Protocol: (§1) The following procedure was used for in vitro determination of PPARα, γ and δ transactivation.
(§2) The ligand binding domain of human PPARγ1, PPARα or PPARδ was fused to the C-terminal end of DNA binding domain of yeast transcription factor GAL4 in eukaryotic expression vector. HEK-293 cells were transfected with either of these plasmids, reporter plasmid pGL2 (Gal4×5)˜SV40˜Luc and pAdVantage using superfect (Qiagen, Germany) for 3 hours. pAdVantage vector was used to enhance the luciferase expression. 48 hours after transfection, the cells were harvested and incubated overnight with or without test compounds at different concentrations. The cells were lysed and luciferase activity was measured using the LucLite kit (Packard USA). Luciferase activity was measured as fold activation relative to untreated cells.

[3] = biological target: T2, human PPARα (Homo sapiens, UniProt Q07869); experiment: in vitro PPARα transactivation, GAL4-LBD luciferase reporter in HEK-293 cells; format: cell-based; settings: luciferase fold activation relative to untreated cells
T2 construct: expressed in transfected cells; host or cells: HEK-293
T2 sequence (Q07869 239-466 limits assumed): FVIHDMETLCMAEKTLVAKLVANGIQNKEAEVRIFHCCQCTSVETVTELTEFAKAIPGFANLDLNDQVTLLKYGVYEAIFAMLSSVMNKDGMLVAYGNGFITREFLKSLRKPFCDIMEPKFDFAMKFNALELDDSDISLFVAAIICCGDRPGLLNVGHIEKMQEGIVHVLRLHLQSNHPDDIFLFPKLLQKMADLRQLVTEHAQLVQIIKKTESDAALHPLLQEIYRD
Source text: A number of derivatives of the invention have shown PPAR agonist activity. The following procedure was used for in vitro determination of PPARα, γ and δ transactivation.
as §2

[4] = system: hypercholesterolemic rat model; experiment: plasma triglyceride and cholesterol lowering activity in hypercholesterolemic rat model; format: in vivo, Sprague Dawley rats; settings: hypercholesterolemic rats, 3.0 mg/kg orally for 3 days; for Reduction (%) LDL: LDL cholesterol calculated by formula; for ↑HDL: increase of plasma HDL (under head Reduction (%)); for Reduction (%) TC: plasma total cholesterol; for Reduction (%) TG: plasma triglyceride
Protocol: The following procedure was used to determine plasma triglyceride and cholesterol lowering activity in hypercholesterolemic rat model.
Male Sprague Dawley rats (NIN stock) were bred in DRL animal house. Animals were maintained under 12 hour light and dark cycle at 25±1° C. Rats of 180-200 gram body weight range were used for the experiment. Animals are made hypercholesterolemic by feeding 2% cholesterol and 1% sodium cholate mixed with standard laboratory chow [National Institute of Nutrition (NIN), Hyderabad, India] for 6 days. Throughout the experimental period the animals were maintained on the same diet. The test compounds were administered orally at a dose mentioned in table for 3 days. Control group was treated with vehicle alone (0.25% CMC; 10 ml/kg). The blood samples were collected in fed state 1 hour after drug administration on 0 and 3 days of compound treatment. The blood was collected from the retro-orbital sinus through heparinised capillary in EDTA containing tubes. After centrifugation, plasma sample was separated for total cholesterol, HDL and triglyceride estimations. Measurement of plasma triglyceride, total cholesterol and HDL were done using commercial kits. LDL and VLDL cholesterol can be calculated from the data obtained for total cholesterol, HDL and triglyceride.
The percent reductions in blood sugar/triglycerides/total cholesterol were calculated according to the following formula:
OC=Zero day control group value
OT=Zero day treated group value
TC=Test day control group value
T=Test day treated group value.
The levels of LDL and VLDL cholesterol were calculated according to the formula:
VLDL cholesterol in mg/dl=[Total cholesterol-HDL cholesterol-LDL cholesterol] mg/dl.

[5] = biological target: T3, human PPARγ1 (Homo sapiens, UniProt P37231); experiment: in vitro PPARγ transactivation, GAL4-LBD luciferase reporter in HEK-293 cells; format: cell-based; settings: luciferase fold activation relative to untreated cells
T3 construct: expressed in transfected cells; host or cells: HEK-293
T3 sequence (P37231 238-503 limits assumed): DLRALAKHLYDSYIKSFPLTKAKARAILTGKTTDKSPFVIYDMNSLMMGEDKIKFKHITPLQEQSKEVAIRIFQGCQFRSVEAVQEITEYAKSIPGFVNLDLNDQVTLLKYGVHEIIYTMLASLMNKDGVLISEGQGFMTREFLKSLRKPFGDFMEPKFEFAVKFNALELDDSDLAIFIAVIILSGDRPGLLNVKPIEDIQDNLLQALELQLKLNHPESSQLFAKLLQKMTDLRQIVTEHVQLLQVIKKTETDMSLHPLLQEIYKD
Protocol: as §1, §2

SMILES: CCCc1nn(C)c2c(=O)n(CCCc3ccc(OC(C)(C)C(=O)O)cc3)c(C)nc12.N=C(N)NCCC[C@H](N)C(=O)O [Example 79, Argenine salt of 2-{4-[3-(1,5-dimethyl-7-oxo-3-propyl-1,7-dihydro-pyrazolo[4,3-d]pyrimidin-6-yl)-propyl]-phenoxy}-2-methyl-propionic acid]
- % reduction in TG [1]: 55%

SMILES: CCCc1nn(C)c2c(=O)n(CCCc3cccc(OC(C)(C)C(=O)O)c3)c(C)nc12.N=C(N)NCCC[C@H](N)C(=O)O [Example 82, Argenine salt of 2-{3-[3-(1,5-dimethyl-7-oxo-3-propyl-1,7-dihydro-pyrazolo[4,3-d]pyrimidin-6-yl)-propyl]-phenoxy}-2-methyl-propionic acid]
- PPARδ activation ([2]; test compound at 1 μM): 0
- PPARδ activation ([2]; test compound at 10 μM): 0
- % reduction in TG [1]: 81%
- PPARα activation ([3]; test compound at 1 μM): 7.1
- PPARα activation ([3]; test compound at 10 μM): 8.4
- Reduction (%) LDL [4]: 72%
- ↑HDL [4]: 48%
- Reduction (%) TC [4]: 68%
- Reduction (%) TG [4]: 69%

SMILES: CCCc1nn(C)c2c(=O)n(CCOc3cccc(OC(C)(C)C(=O)OCC)c3)c(C)nc12 [Example 88, 2-{3-[2-(1,5-Dimethyl-7-oxo-3-propyl-1,7-dihydro-pyrazolo[4,3-d]pyrimidin-6-yl)-ethoxy]-phenoxy}-2-methyl-propionic acid ethyl ester]
- PPARδ activation ([2]; test compound at 1 μM): 0.3
- PPARδ activation ([2]; test compound at 10 μM): 0.6
- PPARα activation ([3]; test compound at 1 μM): 1.6
- PPARα activation ([3]; test compound at 10 μM): 3.6
- melting point: 86 to 88 °C

SMILES: CCCc1nn(C)c2c(=O)n(CCOc3cccc(OC(C)(C)C(=O)O)c3)c(C)nc12 [Example 89, 2-{3-[2-(1,5-Dimethyl-7-oxo-3-propyl-1,7-dihydro-pyrazolo[4,3-d]pyrimidin-6-yl)-ethoxy]-phenoxy}-2-methyl-propionic acid]
- PPARδ activation ([2]; test compound at 1 μM): 0
- PPARδ activation ([2]; test compound at 10 μM): 0.4
- % reduction in TG [1]: 60%
- PPARα activation ([3]; test compound at 1 μM): 2.1
- PPARα activation ([3]; test compound at 10 μM): 7.4
- Reduction (%) LDL [4]: 68%
- ↑HDL [4]: 102%
- Reduction (%) TC [4]: 65%
- Reduction (%) TG [4]: 68%
- melting point: 140 to 142 °C
- PPARγ activation ([5]; test compound at 1 μM): 0(54.5)
- PPARγ activation ([5]; test compound at 10 μM): 0(62.8)

SMILES: CCCc1nn(C)c2c(=O)n(CCCc3ccc(OC(C)(CC)C(=O)O)cc3)c(C)nc12 (centres unmarked) [Example 95, 2-{4-[3-(1,5-Dimethyl-7-oxo-3-propyl-1,7-dihydro-pyrazolo[4,3-d]pyrimidin-6-yl)-propyl]-phenoxy}-2-methyl-butyric acid]
- PPARδ activation ([2]; test compound at 1 μM): 0.1
- PPARδ activation ([2]; test compound at 10 μM): 4.0
- % reduction in TG ([1]; 3 mg/kg): 63%
- PPARα activation ([3]; test compound at 1 μM): 6.4
- PPARα activation ([3]; test compound at 10 μM): 7.3
- Reduction (%) LDL ([4]; 3 mg/kg): 69%
- ↑HDL ([4]; 3 mg/kg): 212%
- Reduction (%) TC ([4]; 3 mg/kg): 64%
- Reduction (%) TG ([4]; 3 mg/kg): 67%
- PPARγ activation ([5]; test compound at 1 μM): 17.3(85.5)
- PPARγ activation ([5]; test compound at 10 μM): 36.6(110.3)

SMILES: CCCc1nn(C)c2c(=O)n(CCCc3ccc(OC(C)(CC)C(=O)O)cc3)c(C)nc12 (centres unmarked) [Example 96, Magnesium salt of 2-{4-[3-(1,5-dimethyl-7-oxo-3-propyl-1,7-dihydro-pyrazolo[4,3-d]pyrimidin-6-yl)-propyl]-phenoxy}-2-methyl-butyric acid]
- % reduction in TG ([1]; 3 mg/kg): 60%
- Reduction (%) LDL ([4]; 3 mg/kg): 67%
- ↑HDL ([4]; 3 mg/kg): 162%
- Reduction (%) TC ([4]; 3 mg/kg): 63%
- Reduction (%) TG ([4]; 3 mg/kg): 76%

SMILES: CCCc1nn(C)c2c(=O)n(CCOc3cccc(O[C@](C)(CC)C(=O)O)c3)c(C)nc12 [Example 100, R-(+)-2-{3-[2-(1,5-Dimethyl-7-oxo-3-propyl-1,7-dihydro-pyrazolo[4,3-d]pyrimidin-6-yl)-ethoxy]-phenoxy}-2-methyl-butyric acid]
- % reduction in TG [1]: 76%
- Reduction (%) LDL [4]: 76%
- ↑HDL [4]: 145%
- Reduction (%) TC [4]: 70%
- Reduction (%) TG [4]: 60%
- melting point: 118 to 120 °C

SMILES: CCCc1nn(C)c2c(=O)n(CCOc3cc(O[C@](C)(CC)C(=O)O)ccc3Cl)c(C)nc12 [Example 102, R-(+)-2-{4-Chloro-3-[2-(1,5-dimethyl-7-oxo-3-propyl-1,7-dihydro-pyrazolo[4,3-d]pyrimidin-6-yl)-ethoxy]-phenoxy}-2-methyl-butyric acid]
- PPARδ activation ([2]; test compound at 1 μM): 1.7
- PPARδ activation ([2]; test compound at 10 μM): 1.3
- % reduction in TG [1]: 67%
- PPARα activation ([3]; test compound at 1 μM): 3.9
- PPARα activation ([3]; test compound at 10 μM): 5.2
- Reduction (%) LDL [4]: 55%
- ↑HDL [4]: 45%
- Reduction (%) TC [4]: 51%
- Reduction (%) TG [4]: 51%
- melting point: 98 to 100 °C

SMILES: CCCc1nn(C)c2c(=O)n(CCOc3cccc(O[C@@](C)(CC)C(=O)O)c3)c(C)nc12 [Example 104, S-(−)-2-{3-[2-(1,5-Dimethyl-7-oxo-3-propyl-1,7-dihydro-pyrazolo[4,3-d]pyrimidin-6-yl)-ethoxy]-phenoxy}-2-methyl-butyric acid]
- % reduction in TG [1]: 70%
- Reduction (%) LDL [4]: 77%
- ↑HDL [4]: 158%
- Reduction (%) TC [4]: 71%
- Reduction (%) TG [4]: 72%
- melting point: 119 to 120 °C
